# Where two headings read alike, the source gives them in different places.
# What was measured:
# [1] = target: T1, FXR-LBD protein (residues 244–472) (Homo sapiens, UniProt Q96RI1)
# T1 sequence (Q96RI1 244-472 isoform Q96RI1-2): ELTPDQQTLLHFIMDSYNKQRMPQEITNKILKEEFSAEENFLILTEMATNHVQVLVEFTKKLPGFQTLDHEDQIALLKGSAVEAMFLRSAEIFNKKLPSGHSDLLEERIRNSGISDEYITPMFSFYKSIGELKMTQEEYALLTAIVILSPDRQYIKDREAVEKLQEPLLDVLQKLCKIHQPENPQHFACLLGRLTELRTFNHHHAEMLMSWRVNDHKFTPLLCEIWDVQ
# Text: The thermal shift method is widely used to assess ligand binding. A thermal shift assay usually measures the melting temperature of a protein with or without a ligand by monitoring a fluorescent dye. In an aqueous solution of folded protein the dye signal is low due to quenching of the dye fluorescence in water, but with increasing temperature the protein unfolds and exposes its hydrophobic core regions. The fluorescent dye is then bound to the hydrophobic surfaces and fluorescence increases.
# Thermal Shift assay was performed in clear 96-well plates (Invitrogen) using SYPRO Orange (Invitrogen Darmstadt, Germany) as dye. […] Temperature-dependent fluorescence increase reporting protein denaturation was measured in duplicates in an ICycler (Bio-Rad) from 20 to 90 °C in steps of 0.2 °C per minute at […] and 570 nm emission wavelength. Each experiment was independently repeated four times. The first derivative of the melting curves was calculated using the Graph Pad Prism 5 software.
# [2] = target: T2, fusion receptor of the FXR ligand binding domain and a Gal4 DNA binding domain (Homo sapiens, UniProt Q96RI1)
# T2 sequence (Q96RI1 262-486 limits assumed): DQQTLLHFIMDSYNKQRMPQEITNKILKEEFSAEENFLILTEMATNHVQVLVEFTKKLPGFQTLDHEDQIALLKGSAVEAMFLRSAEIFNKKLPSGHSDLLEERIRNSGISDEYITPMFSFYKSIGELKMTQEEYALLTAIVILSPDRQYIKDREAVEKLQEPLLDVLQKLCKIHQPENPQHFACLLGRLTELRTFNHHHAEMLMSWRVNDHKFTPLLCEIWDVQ
# Method: Luminescence was measured with an Infinite M200 luminometer (Tecan Deutschland GmbH). […] Fold activation was obtained by dividing the mean RLU of a test compound at a respective concentration by the mean RLU of untreated control.
# [3] = test system: bile salt export protein (BSEP) mRNA
# Method: (§1) Quantification of the expression of FXR target genes in non-transfected cells offers the least artificial way to characterize the activity of a FXR ligand in vitro. […] As investigated genes we selected the direct FXR target genes bile salt export protein (BSEP) and small hetero-dimer partner (SHP) which allows a specific conclusion whether a FXR-dependent effect is present. […] We then quantified the mRNA of FXR target genes BSEP and SHP by qRT-PCR.
# (§2) HepG2 cells were seeded in DMEM high glucose, supplemented with 10% FCS, SP (1 mM), penicillin (100 U/mL) and streptomycin (100 μg/mL) at 37 °C and 5% CO2 in 6-well plates (2 · 10^6 per well). 24 h after seeding, medium was changed to MEM, supplemented with 1% charcoal-stripped FCS, penicillin (100 U/mL), streptomycin (100 μg/mL) and L-glutamine (2 mM). After additional 24 h, medium was changed again to MEM, now additionally containing 0.1% DMSO and the respective test compounds or 0.1% DMSO alone as untreated control. Cells were incubated with the test compounds for 6 h, harvested, washed with cold phosphate buffered saline (PBS) and then directly used for RNA extraction.
# Total RNA was extracted from HepG2 cells by the Total RNA Mini Kit (R6834-02, Omega Bio-Tek, Inc., Norcross, GA, USA). RNA was reverse-transcribed into cDNA using the High-Capacity cDNA Reverse Transcription Kit (4368814, Thermo Fischer Scientific, Inc., Waltham, MA, USA) with 2 μg RNA according to the manufacturer’s protocol.
# FXR target gene expression was evaluated by quantitative PCR analysis with a StepOnePlusTM System (Life Technologies) using PowerSYBRGreen (Life Technologies; 12.5 μL per well) and the following primers[17] (300 nM each): SHP: 5′-[…] (forward) and 5′-[…] (reverse); BSEP: 5′-[…] (forward) and 5′-[…] (reverse). Results were normalized to GAPDH Ct values. Sequences of the GAPDH primers were as follows: 5′-[…] (forward) and 5′- […] (reverse). Each sample was set up in duplicates and repeated in at least four independent experiments. The expression was quantified by the comparative ΔΔCt method.
# HepG2 cells = assay: Cell proliferation assay (WST-1) in HepG2 cells; details: for effect on cell viability: 6 hours, 25 μM NSAID and CDCA (50 μM); for concentrations that are considerably toxic: summing up of the WST-1 toxicity data (HepG2 and HEK293T); for no toxic effect on cell viability up to (concentration): 6 hours incubation, alone or in combination with CDCA (50 μM)
# Method: (§3) WST-1 assay (Roche Diagnostics International AG, Rotkreuz, Switzerland) was performed according to manufacturer’s protocol. In brief, HepG2 cells were seeded in DMEM high glucose, supplemented with sodium pyruvate (1 mM), penicillin (100 U/mL), streptomycin (100 μg/mL) and 10% FCS in 96-well plates (3 · 10^4 cells/well). HEK293T cells were seeded in DMEM high glucose, supplemented with sodium pyruvate (1 mM), penicillin (100 U/mL), streptomycin (100 μg/mL) and 10% FCS in 96-well plates (2,5 · 10^4 cells/well). After 24 h, medium was changed to DMEM high glucose, supplemented with penicillin (100 U/mL), streptomycin (100 μg/mL) and 1% charcoal stripped FCS and cells were incubated with varying concentrations of test compounds, Revlotron (100 μM) as positive control and DMEM/0,1% DMSO as negative control. […] […] After 45 min incubation, absorption (450 nm/reference: 620 nm) was determined with a Tecan Infinite M200 luminometer (Tecan Deutschland GmbH). Each experiment was repeated at least four times in triplicates.
# [4] = Cell proliferation assay (WST-1) in HepG2 cells; details: human, HepG2 cells
# Method: as §3
# [5] = test system: small hetero-dimer partner (SHP) mRNA; assay: FXR target gene quantification by qRT-PCR in HepG2 cells: SHP; assay type: cell-based
# Method: as §1
# as §2, with “extraction. […]” for “extraction.”
# FXR target gene expression was evaluated by quantitative PCR analysis with a StepOnePlusTM System (Life Technologies) using PowerSYBRGreen (Life Technologies; 12.5 μL per well) and the following primers[17] […] The expression was quantified by the comparative ΔΔCt method.
# HEK293T cells = assay: Cell proliferation assay (WST-1) in HEK293T cells; assay type: cell-based; details: for anti-proliferative effect in combination with CDCA: 24 h, NSAIDs 5, 25, 50 μM combined with CDCA (50 μM); for toxicity compared with HepG2 cells: 48 h
# Method: as §3
# FXR = target: T3, FXR (Homo sapiens, UniProt Q96RI1); assay: Full-length FXR reporter gene assay in HeLa cells (BSEP promotor, RXRα); assay type: cell-based
# T3 construct: is based on the complete FXR receptor (CMV promoter); expressed in transfected cells; host or cells: HeLa
# T3 sequence (Q96RI1 1-486): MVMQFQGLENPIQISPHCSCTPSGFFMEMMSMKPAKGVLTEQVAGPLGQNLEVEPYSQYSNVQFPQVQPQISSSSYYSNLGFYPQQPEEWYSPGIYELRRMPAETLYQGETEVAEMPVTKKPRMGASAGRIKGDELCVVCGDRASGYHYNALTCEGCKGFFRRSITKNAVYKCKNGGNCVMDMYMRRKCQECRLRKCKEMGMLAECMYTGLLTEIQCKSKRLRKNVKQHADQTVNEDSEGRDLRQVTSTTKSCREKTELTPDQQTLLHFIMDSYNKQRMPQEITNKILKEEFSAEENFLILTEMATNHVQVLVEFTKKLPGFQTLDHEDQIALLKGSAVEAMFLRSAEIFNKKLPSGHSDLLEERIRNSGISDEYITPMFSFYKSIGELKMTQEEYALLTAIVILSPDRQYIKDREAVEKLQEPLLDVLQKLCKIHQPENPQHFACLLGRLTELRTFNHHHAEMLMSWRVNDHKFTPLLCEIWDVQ
# T3 sequence (P19793 1-462 partner): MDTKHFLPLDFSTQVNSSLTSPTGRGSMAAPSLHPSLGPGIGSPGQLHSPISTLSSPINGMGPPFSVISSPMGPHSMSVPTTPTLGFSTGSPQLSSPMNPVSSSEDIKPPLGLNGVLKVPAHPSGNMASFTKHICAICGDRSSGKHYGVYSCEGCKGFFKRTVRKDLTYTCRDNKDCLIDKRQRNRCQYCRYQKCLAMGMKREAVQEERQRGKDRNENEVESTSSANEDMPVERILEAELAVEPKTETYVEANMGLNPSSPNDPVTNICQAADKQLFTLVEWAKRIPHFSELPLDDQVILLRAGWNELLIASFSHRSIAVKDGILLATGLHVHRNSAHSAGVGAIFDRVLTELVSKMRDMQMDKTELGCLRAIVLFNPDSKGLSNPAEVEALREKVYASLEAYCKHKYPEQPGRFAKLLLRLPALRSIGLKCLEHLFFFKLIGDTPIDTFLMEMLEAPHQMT
# Method: Luminescence was measured with a Tecan Infinite M200 luminometer (Tecan Deutschland GmbH, Crailsheim, Germany). […] Fold activation was obtained by dividing the mean RLU of the tested compound at a respective concentration by the mean RLU of untreated control.
# CYP7A1 mRNA = test system: CYP7A1 mRNA; design: method as in PMID 25631039; details: HepG2 cells, with 50 μM CDCA; cited from earlier work
# [6] = 10 or 30 μM in competition with GW4064 (3 μM), OCA (3 μM) and CDCA (20 μM)
smiles,measurement,setting,value
CC(C)c1onc(-c2c(Cl)cccc2Cl)c1COc1ccc(/C=C/c2cccc(C(=O)O)c2)c(Cl)c1 [GW4064],concentrations that robustly stabilize the FXR-LBD,"[1]; 5 μM FXR-LBD, ratio to protein ≥20:1",≥ 100 µM
"O=C(O)Cc1ccccc1Nc1c(Cl)cccc1Cl [diclofenac, diclofenac sodium]",activity of the control gene (renilla luciferase),[2],toxicity driven decrease
same,agonistic activity,[2]; 10 or 30 μM alone,None
same,competitive antagonistic activity,[2]; [6],None
same,effect on BSEP expression,[3],did not affect the expression
same,stabilization of the FXR-LBD,"[1]; 500 μM alone, ratio to protein 100:1",did not stabilize the FXR-LBD
same,antagonism of the stabilization of the FXR-LBD by GW4064,"[1]; 500 μM in competition with GW4064 (100 μM, ratio 20:1)",did not antagonize the stabilization
same,effect on cell viability,HepG2 cells; HepG2 cells,did not affect cell viability
same,concentrations with anti-proliferative activity / slight toxicity,"HepG2 cells; HepG2 cells, 48 h",≥ 10 µM
same,concentrations that are considerably toxic,HepG2 cells,≥ 30 µM
same,"viability at 6 h, 30 μM",[4],85 ± 2%
same,"viability at 6 h, 50 μM",[4],75 ± 2%
same,antagonistic effect on SHP expression,"[5]; 25 μM and 50 μM in competition with CDCA (50 μM), 6 h",did not observe any antagonistic effect
same,effect on SHP expression,"[5]; 50 μM alone, 6 h incubation",did not affect the expression
same,anti-proliferative effect in combination with CDCA,HEK293T cells,considerable anti-proliferative effects
same,toxicity compared with HepG2 cells,HEK293T cells,even higher toxicity
same,agonistic activity,FXR; 10 or 30 μM alone,None
same,competitive antagonistic activity,FXR; [6],None
CC(C)Cc1ccc(C(C)C(=O)O)cc1 (centres unmarked) [ibuprofen],induction of CYP7A1 expression (increase in mRNA levels),CYP7A1 mRNA,1.7 fold
same,no toxic effect on cell viability up to (concentration),HepG2 cells; HepG2 cells,up to 100 μM
same,effect on cell viability,HepG2 cells; HepG2 cells,did not affect cell viability
same,no toxicity up to (concentration),"HepG2 cells; HepG2 cells, 48 h",up to 50 μM
same,anti-proliferative effect in combination with CDCA,HEK293T cells,considerable anti-proliferative effects
COc1ccc2c(c1)c(CC(=O)O)c(C)n2C(=O)c1ccc(Cl)cc1 [indometacin],induction of CYP7A1 expression (increase in mRNA levels),CYP7A1 mRNA,9 fold
same,antagonistic effect on BSEP expression,"[3]; HepG2 cells, 25 μM and 50 μM in competition with CDCA (50 μM), 6 h",did not observe any antagonistic effect
same,effect on BSEP expression,"[3]; HepG2 cells, 50 μM alone, 6 h incubation",did not affect the expression
same,no toxic effect on cell viability up to (concentration),HepG2 cells; HepG2 cells,up to 50 μM
same,effect on cell viability,HepG2 cells; HepG2 cells,did not affect cell viability
same,concentrations with anti-proliferative activity / slight toxicity,"HepG2 cells; human, 48 h",≥ 10 µM
same,concentrations that are considerably toxic,HepG2 cells,≥ 30 µM
same,anti-proliferative effect in combination with CDCA,HEK293T cells,considerable anti-proliferative effects
same,toxicity compared with HepG2 cells,HEK293T cells,even higher toxicity
